Reference: patent US4994376A, “Detection of bacteroides gingivalis” (priority 1987, dated 1991)
Like-named read-outs stand apart in the source and are kept apart here. Peptide text beside a SMILES is read from it. * marks the point of attachment. βNA = c1ccc2cc(N*)ccc2c1

Assays:
Assay type in all cases: biochemical
"Anaerobic vibrio" = details: strain SN2T2; β-naphthylamine liberated after 60 minutes, 37° C.
In short: (§1)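 Readout: absorbance at 525 nm (or visual match to standard solutions) after diazo coupling with Fast Garnet GBC. Substrate N-CBz-glycyl-glycyl-L-arginine-β-naphthylamide, 1 h, 37° C. Values = nmol β-naphthylamine released per 60 min; no-enzyme mixture as control.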

Fusobacterium nucleatum = details: β-naphthylamine liberated after 60 minutes, 37° C.
In short: as §1

Campylobacter sputorum = details: strain Ba1-21; β-naphthylamine liberated after 60 minutes, 37° C.
In short: as §1

Actinomyces israeli = details: β-naphthylamine liberated after 60 minutes, 37° C.
In short: as §1

S. mutans = details: strain ATCC 25175; β-naphthylamine liberated after 60 minutes, 37° C.
In short: as §1

V. parvula = details: strain ATCC 10790; β-naphthylamine liberated after 60 minutes, 37° C.
In short: as §1

A. viscosus = details: β-naphthylamine liberated after 60 minutes, 37° C.
In short: as §1

[1] = system: Actinobacillus actinomycetemcomitans; details: β-naphthylamine liberated after 60 minutes, 37° C.
In short: as §1

A. seminis = details: strain ATCC 15768; β-naphthylamine liberated after 60 minutes, 37° C.
In short: as §1

Eikenella corrodens = details: strain BP1-6; β-naphthylamine liberated after 60 minutes, 37° C.
In short: as §1

Streptococcus mitis = details: β-naphthylamine liberated after 60 minutes, 37° C.
In short: as §1

S. sanguis = details: β-naphthylamine liberated after 60 minutes, 37° C.
In short: as §1

Veillonella sp. = details: strain SE1M2; β-naphthylamine liberated after 60 minutes, 37° C.
In short: as §1

C. sputigena = test: Aminopeptidase activity on β-naphthylamide substrates; details: strain ATCC 33123; β-naphthylamine liberated after 60 minutes, 37° C.
In short: (§2)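 N-CBz-glycyl-glycyl-L-arginine-β-naphthylamide was hydrolysed for 1 hour at 37 °C, then coupled with Fast Garnet GBC (0.5 mg/ml) in 1M acetic acid buffer, pH 4.2, containing 10% Tween 20. After 15 minutes at room temperature, absorbance was read at 525 nm against a no-enzyme blank; activity is given as nmol β-naphthylamine released per 60 min.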

B. corporis = test: as above; details: strain ATCC 33547; β-naphthylamine liberated after 60 minutes, 37° C.
In short: as §2

B. melaninogenicus = test: as above; details: strain ATCC 25845; β-naphthylamine liberated after 60 minutes, 37° C.
In short: as §2

B. intermedius = test: as above; details: strain ATCC 25611; β-naphthylamine liberated after 60 minutes, 37° C.
In short: as §2

B. denticola = test: as above; details: strain ATCC 33185; β-naphthylamine liberated after 60 minutes, 37° C.
In short: as §2

Bacteroides gingivalis = details: β-naphthylamine liberated after 60 minutes, 37° C.
In short: as §2

C. ochracea = details: strain ATCC 27872; β-naphthylamine liberated after 60 minutes, 37° C.
In short: as §2

B. levii = details: β-naphthylamine liberated after 60 minutes, 37° C.
In short: as §2

Capnocytophaga sp. = details: strain JD3-5; β-naphthylamine liberated after 60 minutes, 37° C.
In short: as §2

Haemophilus aphrophilus = test: Aminopeptidase activity on β-naphthylamide substrates; details: β-naphthylamine liberated after 60 minutes, 37° C.
In short: as §1

Lactobacillus casei = test: as above; details: β-naphthylamine liberated after 60 minutes, 37° C.
In short: as §1

F. periodonticum = test: as above; details: strain EK1-15; β-naphthylamine liberated after 60 minutes, 37° C.
In short: as §1

L. fermentum = test: as above; details: strain ATCC 11581; β-naphthylamine liberated after 60 minutes, 37° C.
In short: as §1

A. equuli = test: as above; details: strain ATCC 19392; β-naphthylamine liberated after 60 minutes, 37° C.
In short: as §1

S. salivarius = test: as above; details: β-naphthylamine liberated after 60 minutes, 37° C.
In short: as §1

A. suis = test: as above; details: strain ATCC 15557; β-naphthylamine liberated after 60 minutes, 37° C.
In short: as §1

Q: `CC(C)C[C@H](NC(=O)[C@@H]1CCCN1C(=O)CN)C(=O)Nc1ccc2ccccc2c1` [Gly-Pro-Leu] (H-Gly-Pro-Leu-βNA) was tested. Which Aminopeptidase activity ("Anaerobic vibrio") did it give?
A: The Aminopeptidase activity was 0 nmol.

Q: What about the Aminopeptidase activity (Fusobacterium nucleatum; strain 2) of the same molecule?
A: The Aminopeptidase activity was 0 nmol.

Q: And the Aminopeptidase activity (Fusobacterium nucleatum; strain ATCC 25586)?
A: Its Aminopeptidase activity is 2 nmol.

Q: What about the Aminopeptidase activity (Fusobacterium nucleatum; strain D31A-24) of the same molecule?
A: The Aminopeptidase activity was 2 nmol.

Q: And the Aminopeptidase activity (Campylobacter sputorum)?
A: The Aminopeptidase activity was 2 nmol.

Q: What about the Aminopeptidase activity (Actinomyces israeli; strain ATCC 12103) of the same molecule?
A: The Aminopeptidase activity was 0 nmol.

Q: And the Aminopeptidase activity (Actinomyces israeli; strain DK2-3)?
A: Its Aminopeptidase activity is 0 nmol.

Q: And the Aminopeptidase activity (S. mutans)?
A: The Aminopeptidase activity was 0 nmol.

Q: What about the Aminopeptidase activity (V. parvula) of the same molecule?
A: The Aminopeptidase activity was 0 nmol.

Q: What about the Aminopeptidase activity (A. viscosus; strain ATCC 19246) of the same molecule?
A: The Aminopeptidase activity was 0 nmol.

Q: What about the Aminopeptidase activity (A. viscosus; strain T14V) of the same molecule?
A: Its Aminopeptidase activity is 2 nmol.

Q: And the Aminopeptidase activity ([1]; strain 67)?
A: Its Aminopeptidase activity is 1 nmol.

Q: What about the Aminopeptidase activity ([1]; strain 75) of the same molecule?
A: Its Aminopeptidase activity is 1 nmol.

Q: And the Aminopeptidase activity ([1]; strain ATCC 29523)?
A: The Aminopeptidase activity was 0 nmol.

Q: What about the Aminopeptidase activity ([1]; strain NCTC 9709) of the same molecule?
A: The Aminopeptidase activity was 0 nmol.

Q: And the Aminopeptidase activity ([1]; strain Y4)?
A: The Aminopeptidase activity was 0 nmol.

Q: And the Aminopeptidase activity (A. seminis)?
A: The Aminopeptidase activity was 0 nmol.

Q: What about the Aminopeptidase activity (Eikenella corrodens) of the same molecule?
A: The Aminopeptidase activity was 0 nmol.

Q: What about the Aminopeptidase activity (Streptococcus mitis; strain ATCC 9815) of the same molecule?
A: The Aminopeptidase activity was 27 nmol.

Q: What about the Aminopeptidase activity (Streptococcus mitis; strain ATCC 15909) of the same molecule?
A: Its Aminopeptidase activity is 7 nmol.

Q: What about the Aminopeptidase activity (Streptococcus mitis; strain ATCC 15912) of the same molecule?
A: The Aminopeptidase activity was 11 nmol.

Q: What about the Aminopeptidase activity (S. sanguis; strain ATCC 10556) of the same molecule?
A: The Aminopeptidase activity was 11 nmol.

Q: What about the Aminopeptidase activity (S. sanguis; strain ATCC 10557) of the same molecule?
A: Its Aminopeptidase activity is 6 nmol.

Q: And the Aminopeptidase activity (Veillonella sp.)?
A: Its Aminopeptidase activity is 0 nmol.

Q: What about the Aminopeptidase activity (C. sputigena) of the same molecule?
A: The Aminopeptidase activity was 28 nmol.

Q: What about the Aminopeptidase activity (B. corporis) of the same molecule?
A: The Aminopeptidase activity was 2 nmol.

Q: And the Aminopeptidase activity (B. melaninogenicus)?
A: The Aminopeptidase activity was 2 nmol.

Q: And the Aminopeptidase activity (B. intermedius)?
A: The Aminopeptidase activity was 0 nmol.

Q: What about the Aminopeptidase activity (B. denticola) of the same molecule?
A: Its Aminopeptidase activity is 1 nmol.

Q: What about the Aminopeptidase activity (Bacteroides gingivalis; strain 9-14K-1) of the same molecule?
A: The Aminopeptidase activity was 0 nmol.

Q: And the Aminopeptidase activity (Bacteroides gingivalis; strain 11-1-2)?
A: Its Aminopeptidase activity is 2 nmol.

Q: And the Aminopeptidase activity (Bacteroides gingivalis; strain 381)?
A: Its Aminopeptidase activity is 0 nmol.

Q: And the Aminopeptidase activity (Bacteroides gingivalis; strain 1021)?
A: Its Aminopeptidase activity is 0 nmol.

Q: What about the Aminopeptidase activity (Bacteroides gingivalis; strain ATCC 33277) of the same molecule?
A: Its Aminopeptidase activity is 0 nmol.

Q: And the Aminopeptidase activity (Bacteroides gingivalis; strain FAYE 19m-1)?
A: Its Aminopeptidase activity is 0 nmol.

Q: What about the Aminopeptidase activity (C. ochracea) of the same molecule?
A: The Aminopeptidase activity was 41 nmol.

Q: And the Aminopeptidase activity (B. levii; strain 18-1-5)?
A: The Aminopeptidase activity was 1 nmol.

Q: What about the Aminopeptidase activity (B. levii; strain 18-1-8) of the same molecule?
A: The Aminopeptidase activity was 0 nmol.

Q: And the Aminopeptidase activity (Capnocytophaga sp.)?
A: The Aminopeptidase activity was 0 nmol.

Q: And the Aminopeptidase activity (Haemophilus aphrophilus; strain ATCC 13252)?
A: The Aminopeptidase activity was 0 nmol.

Q: And the Aminopeptidase activity (Haemophilus aphrophilus; strain ATCC 19415)?
A: The Aminopeptidase activity was 0 nmol.

Q: And the Aminopeptidase activity (Haemophilus aphrophilus; strain NCTC 5908)?
A: Its Aminopeptidase activity is 0 nmol.

Q: What about the Aminopeptidase activity (Lactobacillus casei; strain ATCC 7469) of the same molecule?
A: Its Aminopeptidase activity is 0 nmol.

Q: What about the Aminopeptidase activity (Lactobacillus casei; strain ATCC 11578) of the same molecule?
A: The Aminopeptidase activity was 0 nmol.

Q: And the Aminopeptidase activity (Lactobacillus casei; strain ATCC 11582)?
A: The Aminopeptidase activity was 0 nmol.

Q: And the Aminopeptidase activity (F. periodonticum)?
A: Its Aminopeptidase activity is 1 nmol.

Q: And the Aminopeptidase activity (L. fermentum)?
A: Its Aminopeptidase activity is 0 nmol.

Q: What about the Aminopeptidase activity (A. equuli) of the same molecule?
A: Its Aminopeptidase activity is 0 nmol.

Q: And the Aminopeptidase activity (S. salivarius; strain ATCC 9759)?
A: The Aminopeptidase activity was 2 nmol.

Q: What about the Aminopeptidase activity (S. salivarius; strain ATCC 25975) of the same molecule?
A: The Aminopeptidase activity was 0 nmol.

Q: What about the Aminopeptidase activity (A. suis) of the same molecule?
A: Its Aminopeptidase activity is 0 nmol.
